Assay results: PMC3605428, “A Readily Applicable Strategy to Convert Peptides to Peptoid-based Therapeutics” (PLoS ONE, 2013)
Non-standard residues stand in square brackets, D forms with d. No end group written: not given here. *: point of attachment. FITC = O=C1OC2(c3ccc(O)cc3Oc3cc(O)ccc32)c2ccc(NC(=S)*)cc21; Sar = CNCC(=O)O

Tested on: 5-helix bundle (5HB) protein mimicking hRSV fusion protein F
Experiment: 5HB-based competitive fluorescence polarization (FP) binding assay
Design: species or system human respiratory syncytial virus (hRSV)
Settings: 200 µM peptide; inhibition of Fl-C35 tracer (5 nM) binding to 5HB (20 nM); FP buffer 20 mM PBS pH 7.4, 500 mM NaCl, 0.01% Tween-20, 0.05 mg/ml bovine gamma globulin; 1 h + 30 min at room temperature; ex 485/em 530 nm
Protocol: Competitive FP binding assays of the C20 derivatives were carried out as previously described. Briefly, a 5-helix bundle (5HB) protein was designed to mimic a post-fusion structure of fusion protein F (6-helix bundle) and provide a specific binding site for screening potential human respiratory syncytial virus (hRSV) entry inhibitors. Using a 5HB protein as a target protein and a fluorescently labeled 35 amino acid-long peptide (Fl-C35, sequence shown in Table S1) as a tracer, we performed a competitive FP assay to evaluated the binding affinity of each C20 analogue prepared in this study. In each well of a black 96-well plate (Corning Inc. Lowell, MA, USA), 20 nM of the 5HB with increasing concentrations of each peptomer in FP buffer (20 mM PBS at pH 7.4, 500 mM NaCl, 0.01% (v/v) Tween-20, and 0.05 mg/ml bovine gamma globulin) in a final volume of 185 µL was incubated for 1h at room temperature. Fl-C35 was then added to a final concentration of 5 nM followed by 30 min incubation at room temperature. The FP responses were monitored using a Synergy4 plate reader (Biotek, Winooski, VT, USA) with an excitation wavelength of 485 nm and an emission wavelength of 530 nm. The percentage of inhibition (% Inhibition) was calculated from the equation: % inhibition = 100×[1-(mP-mPf)/(mPb-mPf)]. Unbound Fl-C35 (mPf), bound Fl-C35 (mPb) and the bound inhibitor to the 5HB (mP) are used accordingly.
Sample preparation for FP measurements.

Row | Substance | % Inhibition at 200 µM [%]
1 | ISQVNEKINQSLAAIRKSDE [Peptide A14, alanine-substituted C20 peptide] | 25.00
2 | ISQVNEKINQSLAF[Sar]RKSDE [Sar15, sarcosine-substituted C20 peptide] | 30.56
3 | ISQVNEKINQSLAFIR[Sar]SDE [Sar17, sarcosine-substituted C20 peptide] | 84.26
4 | ISQVNEKINQSLAFIAKSDE [Peptide A16, alanine-substituted C20 peptide] | 53.63
5 | ISQVNEKINQSLA[Sar]IRKSDE [Sar14, sarcosine-substituted C20 peptide] | 4.63
6 | ISQVNEKINQPLAFIRKSDE [Peptide P11, proline-substituted C20 peptide] | 9.26
7 | ISQVNEKINQSAAFIRKSDE [Peptide A12, alanine-substituted C20 peptide] | 43.63
8 | ISQVNEKINQSLAFARKSDE [Peptide A15, alanine-substituted C20 peptide] | 21.36
9 | ISQVNEK[Sar]NQSLAFIRKSDE [Sar8, sarcosine-substituted C20 peptide] | 26.85
10 | ISQVNE[Sar]INQSLAFIRKSDE [Sar7, sarcosine-substituted C20 peptide] | 100.00
11 | ISQVNEKINASLAFIRKSDE [Peptide A10, alanine-substituted C20 peptide] | 11.36
12 | ISQVNEKIN[Sar]SLAFIRKSDE [Sar10, sarcosine-substituted C20 peptide] | 21.30
13 | ASQVNEKINQSLAFIRKSDE [Peptide A1, alanine-substituted C20 peptide] | 15.45
14 | ISQVNEKINQSLAFIRKPDE [Peptide P18, proline-substituted C20 peptide] | 0.93
15 | ISQVNEKINQSLAFIRKSDE [Peptide A13, alanine scan entry for position 13] | 100.00
16 | ISQVNEKINQSLAFIPKSDE [Peptide P16, proline-substituted C20 peptide] | 4.63
17 | ISQVNEKINQSLAFIRPSDE [Peptide P17, proline-substituted C20 peptide] | 6.48
18 | ISQVNEKINQSLAFIRKSDA [Peptide A20, alanine-substituted C20 peptide] | 29.09
19 | ISQVNEKPNQSLAFIRKSDE [Peptide P8, proline-substituted C20 peptide] | 11.11
20 | ISQVNPKINQSLAFIRKSDE [Peptide P6, proline-substituted C20 peptide] | 26.85
21 | ISQVNEKINQSLAFIRKADE [Peptide A18, alanine-substituted C20 peptide] | 36.81

Row | Substance | % Inhibition at 200 µM [%]
22 | ISQ[Sar]NEKINQSLAFIRKSDE [Sar4, sarcosine-substituted C20 peptide] | 1.85
23 | ISQVNEKINQSLAFIRKSDP [Peptide P20, proline-substituted C20 peptide] | 31.48
24 | IS[Sar]VNEKINQSLAFIRKSDE [Sar3, sarcosine-substituted C20 peptide] | 11.11
25 | ISQVNEKI[Sar]QSLAFIRKSDE [Sar9, sarcosine-substituted C20 peptide] | 13.89
26 | PSQVNEKINQSLAFIRKSDE [Peptide P1, proline-substituted C20 peptide] | 26.85
27 | ISQVNEKINQSLAFIRKSPE [Peptide P19, proline-substituted C20 peptide] | 84.26
28 | ISQVNEAINQSLAFIRKSDE [Peptide A7, alanine-substituted C20 peptide] | 100.00
29 | IPQVNEKINQSLAFIRKSDE [Peptide P2, proline-substituted C20 peptide] | 23.15
30 | ISQVNEKIPQSLAFIRKSDE [Peptide P9, proline-substituted C20 peptide] | 33.33
31 | ISQVPEKINQSLAFIRKSDE [Peptide P5, proline-substituted C20 peptide] | 34.26
32 | ISQVNEKINQSLPFIRKSDE [Peptide P13, proline-substituted C20 peptide] | 10.19
33 | ISQVNEKANQSLAFIRKSDE [Peptide A8, alanine-substituted C20 peptide] | 13.63
34 | ISQVNEKINQSLAFIRKSD[Sar] [Sar20, sarcosine-substituted C20 peptide] | 100.00
35 | ISQVNEKINQSLAFPRKSDE [Peptide P15, proline-substituted C20 peptide] | 4.63
36 | ISQVNEKINQSLAFI[Sar]KSDE [Sar16, sarcosine-substituted C20 peptide] | 0.00
37 | ISQANEKINQSLAFIRKSDE [Peptide A4, alanine-substituted C20 peptide] | 40.00
38 | ISQVNEKINQSLAFIRK[Sar]DE [Sar18, sarcosine-substituted C20 peptide] | 21.30
39 | ISQV[Sar]EKINQSLAFIRKSDE [Sar5, sarcosine-substituted C20 peptide] | 23.15
40 | ISQVNEKINQSPAFIRKSDE [Peptide P12, proline-substituted C20 peptide] | 22.22
41 | ISQVNEKIAQSLAFIRKSDE [Peptide A9, alanine-substituted C20 peptide] | 30.90
42 | ISQVNEKINQS[Sar]AFIRKSDE [Sar12, sarcosine-substituted C20 peptide] | 7.41

Row | Substance | % Inhibition at 200 µM [%]
43 | ISQVNEKINQSLAFIRKSDE [Peptide C20, 20 amino acid-long peptide derived from the 6th helix of hRSV fusion protein F] | 100
44 | I[Sar]QVNEKINQSLAFIRKSDE [Sar2, sarcosine-substituted C20 peptide] | 22.22
45 | {FITC}-YDPLVFPSDEFDASISQVNEKINQSLAFIRKSDEL [Fl-C35, fluorescently labeled 35 amino acid-long peptide used as tracer, reference compound] | 100
46 | ISPVNEKINQSLAFIRKSDE [Peptide P3, proline-substituted C20 peptide] | 14.81
47 | ISQVNEKINQ[Sar]LAFIRKSDE [Sar11, sarcosine-substituted C20 peptide] | 13.89
48 | ISQVNEKINQSLAFIRKS[Sar]E [Sar19, sarcosine-substituted C20 peptide] | 59.26
49 | ISQVNEKINQALAFIRKSDE [Peptide A11, alanine-substituted C20 peptide] | 33.18
50 | [Sar]SQVNEKINQSLAFIRKSDE [Sar1, sarcosine-substituted C20 peptide] | 15.74
51 | ISAVNEKINQSLAFIRKSDE [Peptide A3, alanine-substituted C20 peptide] | 27.27
52 | ISQVNAKINQSLAFIRKSDE [Peptide A6, alanine-substituted C20 peptide] | 89.09
53 | ISQVNEKINQSL[Sar]FIRKSDE [Sar13, sarcosine-substituted C20 peptide] | 4.63
54 | ISQVNEKINPSLAFIRKSDE [Peptide P10, proline-substituted C20 peptide] | 9.26
55 | ISQVN[Sar]KINQSLAFIRKSDE [Sar6, sarcosine-substituted C20 peptide] | 108.33
56 | ISQVNEKINQSLAFIRKSAE [Peptide A19, alanine-substituted C20 peptide] | 31.81
57 | ISQVNEKINQSLAFIRASDE [Peptide A17, alanine-substituted C20 peptide] | 100.00
58 | ISQVAEKINQSLAFIRKSDE [Peptide A5, alanine-substituted C20 peptide] | 25.90
59 | ISQVNEKINQSLAPIRKSDE [Peptide P14, proline-substituted C20 peptide] | 13.89
60 | IAQVNEKINQSLAFIRKSDE [Peptide A2, alanine-substituted C20 peptide] | 23.63
61 | ISQPNEKINQSLAFIRKSDE [Peptide P4, proline-substituted C20 peptide] | 12.96
